These results are taken from PubChem BioAssay AID1549 (Sanford-Burnham Center for Chemical Genomics, 2009).

Activity calls are given as the source filed them. No rule for the calls is given here. Some results are limits rather than exact numbers.

This experiment addresses Influenza A virus M2 proton channel (A/TW/4845/1999 H1N1). As to the kind of experiment: M2 proton channel binding, NMR based, influenza A virus H1N1 strain (AID 1549). The conditions noted are these: NMR binding screen, M2 protein.
With `Cc1cc(N(CN2CCCC2=O)C(=O)c2ccccc2)no1`, the Kd was > 4 mM (inactive). In the case of `COc1c(O)cccc1O`, the Kd was > 4 mM (inactive).

As to `Cc1ccc2c(c1)CC[C@H]1CC(=O)CC[C@]21C`, the Kd is > 4 mM (inactive). With `N=c1n(N)c2ccccc2n1CCO` the figure was > 4 mM (inactive); with `COc1ccc(-c2coc3cc(OC(C)=O)cc(OC(C)=O)c3c2=O)cc1`, > 4 mM (inactive). For the compound `Oc1cc(O)cc(/C=C/c2ccccc2)c1`, the Kd is > 4 mM (inactive). For `CS(=O)(=O)N1CCN(C(=O)c2ccccc2)CC1`, the Kd is > 4 mM (inactive). The value for `COc1cc(OC)c2c(=O)c(-c3ccccc3)coc2c1` was > 4 mM (inactive); that for `COc1ccc(NC(=O)/C=N/O)cc1` was > 4 mM (inactive); that for `NC(=O)NC(=O)Nc1ccc(Cl)cc1` was > 4 mM (inactive). The value for `O=C1CCCc2c(O)cccc21` was > 4 mM (inactive). The value for `NC1=NC(=O)/C(=C\c2cccnc2)S1` was > 4 mM (inactive); that for `C[C@@H]1O[C@@H](O[C@H]2[C@@H](Oc3cc(O)c4c(c3)O[C@H](c3ccc(O)cc3)CC4=O)O[C@H](CO)[C@@H](O)[C@@H]2O)[C@H](O)[C@H](O)[C@H]1O` was > 4 mM (inactive). Turning to `Cc1ccc2c(c1)=C(c1sc(N)nc1O)C(=O)N=2`, the Kd was > 4 mM (inactive). `COCC(=O)Nc1cc2c3c(c1)CCN3C(=O)CC2`: the Kd was > 4 mM (inactive).

As for `Clc1ncc2[nH]cnc2n1`, the Kd was > 4 mM (inactive). The value for `CCNS(=O)(=O)c1ccc(OC)c(C)c1` was > 4 mM (inactive); that for `CN1CCC2(CC1)CC1CC3C=CC1(CN2)O3` (stereo not drawn) was > 4 mM (inactive). With `O=c1nc(C(F)(F)F)nc2ccccn12` the figure was > 4 mM (inactive); with `CC(=O)Nc1cccc(NC(=O)c2cccnc2)c1`, > 4 mM (inactive); with `COc1cc2c(cc1OC)[C@@H]1C(=O)c3ccc(O)c(CC=C(C)C)c3O[C@@H]1CO2`, > 4 mM (inactive). On to `O=C1CCCN1C(=O)c1ccc(F)cc1`, for which the Kd is > 4 mM (inactive).

For `CC(=O)Nc1ccc(NC2SC(=O)NC2=O)cc1` (stereo not drawn), the Kd is > 4 mM (inactive). The value for `Cc1cc(C)nc(Nc2n[nH]c(Cc3ccccc3)n2)n1` was > 4 mM (inactive); that for `COc1ccc(NC(=O)CCCC(=O)O)c(OC)c1` was > 4 mM (inactive); that for `Oc1cc(O)c2c(c1)O[C@H](c1ccc(O)c(O)c1)[C@H](O)C2` was > 4 mM (inactive).

`Cc1nc(-c2ccccc2)ncc1C(=O)O`: the Kd was > 4 mM (inactive). With `COc1cc(C)c(Cl)cc1S(=O)(=O)N(C)C` the figure was > 4 mM (inactive); with `O=C(O)C1=CCCNC1`, > 4 mM (inactive); with `Cc1ccc(F)cc1NC(=O)c1ccc2c(c1)OCO2`, > 4 mM (inactive). Regarding `FC(F)(F)c1cc(-c2ccco2)nc(N2CCOCC2)n1`, the Kd was > 4 mM (inactive).

Take `OC12CC3CC(CC(C3)C1)C2`: the Kd is > 4 mM (inactive).

`Cc1nnc(SCC(=O)NC2CCCC2)[nH]c1=O`: the Kd was > 4 mM (inactive). With `COc1ccc(N2CC(=O)NC2=O)cc1` the figure was > 4 mM (inactive); with `CC(=O)c1cc(C(N)=O)c(=S)[nH]c1C`, > 4 mM (inactive). On to `O=C(CCc1n[nH]c(=O)[nH]c1=O)NCc1ccccc1`, for which the Kd is > 4 mM (inactive).

For the compound `O=C(O)c1ccc(-c2cccs2)s1`, the Kd is > 4 mM (inactive).

Consider `O=C(O)c1cccc(-n2cccc2)c1`, for which the Kd was > 4 mM (inactive).

With `O=C1CSC2(CN3CCC2CC3)N1` (stereo not drawn), the Kd was > 4 mM (inactive). On to `Cc1c(C(=O)Nc2ccncc2)oc2c1C(=O)CC(C)(C)C2`, for which the Kd was > 4 mM (inactive).

Regarding `CCOC(=O)C1CCN(Cc2ccccc2)CC1`, the Kd was > 4 mM (inactive). With `Cc1ccc(-c2nc(-c3cccnc3)no2)cc1` the figure was > 4 mM (inactive). With `Cn1c(CN2CC(c3ccccc3)CC2=O)n[nH]c1=S` (stereo not drawn) the figure was > 4 mM (inactive). On to `Oc1ccc(/C=C/c2cc(O)cc(O)c2)cc1`, for which the Kd is > 4 mM (inactive). With `COC(=O)c1ccc2nsnc2c1` the figure was > 4 mM (inactive); with `O=C(O)CCC(=O)c1c[nH]c2ccccc12`, > 4 mM (inactive). On to `NC(=O)Cc1nc(-c2ccc(F)cc2)cs1`, for which the Kd is > 4 mM (inactive). With `c1ccc(CCNc2ncnc3nc[nH]c23)cc1` the figure was > 4 mM (inactive); with `Cc1csc(CCc2nc(C)cs2)n1`, > 4 mM (inactive). The value for `COc1cc(OC)c2c(=O)c(OC)c(-c3ccc(OC)c(OC)c3)oc2c1` was > 4 mM (inactive); that for `COC(=O)c1cncc(C(=O)OC)c1` was > 4 mM (inactive); that for `O=S(=O)(NCc1ccco1)N1CCOCC1` was > 4 mM (inactive).

Turning to `CC(=O)N1CCc2cc(NC(=O)c3ccc(C)cc3)ccc21`, the Kd is > 4 mM (inactive). The value for `O=C1CC[C@]23/C=C/C(=O)NCCCCNCCCNC(=O)/C=C/c4ccc(c2c4)O[C@@H]3C1` was > 4 mM (inactive); that for `Cn1cnc2c(cnn2-c2ccccc2)c1=O` was > 4 mM (inactive); that for `O=C(Nc1ccccc1Cl)c1cnccn1` was > 4 mM (inactive). The value for `CCOC(=O)c1c(C)nc2ncccn12` was > 4 mM (inactive); that for `CCCC(=O)N1CCSCC1` was > 4 mM (inactive).

Regarding `O=C(O)CNC(=O)c1ccccc1Cl`, the Kd was > 4 mM (inactive). The value for `CC1(C)SCC(C(=O)O)N1C=O` (stereo not drawn) was > 4 mM (inactive); that for `Cc1n[nH]c(=S)[nH]c1=O` was > 4 mM (inactive); that for `Cn1c(=O)cc(O)c2ccccc21` was > 4 mM (inactive). Consider `O=S(=O)(c1cccc2cccnc12)N1CCOCC1`, for which the Kd was > 4 mM (inactive).

For the compound `CCn1cnc2scc(-c3ccccc3)c2c1=O`, the Kd was > 4 mM (inactive).

As to `Cc1noc(C)c1C(=O)Nc1ccc2c(c1)CCC2`, the Kd is > 4 mM (inactive). With `c1ccc2nc3c(nc2c1)CCc1nonc1-3` the figure was > 4 mM (inactive). The value for `CN1CCN(Cc2cccnc2)CC1` was > 4 mM (inactive); that for `CCNC(CC(=O)Nc1cccc([N+](=O)[O-])c1)C(=O)O` (stereo not drawn) was > 4 mM (inactive). With `NC1=NC(=O)/C(=C/c2ccccc2[N+](=O)[O-])S1` the figure was > 4 mM (inactive); with `Cc1nnc2sc(-c3csc4c3CCCC4)nn12`, > 4 mM (inactive).

On to `Nc1scc[n+]1CC(=O)[O-]`, for which the Kd is > 4 mM (inactive). Regarding `COc1cc(N)ncn1`, the Kd was > 4 mM (inactive). As for `CC(C)NC(=O)c1nc2ccccc2s1`, the Kd was > 4 mM (inactive). The value for `O=C(O)c1cccc2c1OCC2` was > 4 mM (inactive); that for `O=C(O)c1ccc(N2CCCCC2)cc1` was > 4 mM (inactive); that for `Nc1cccc(S(=O)(=O)N2CCOCC2)c1` was > 4 mM (inactive). `O=C1Cc2ccccc2N1c1ccccc1`: the Kd is > 4 mM (inactive).

On to `O=C1CN(C(=O)c2ccccc2F)c2ccccc2N1`, for which the Kd was > 4 mM (inactive). The value for `O=C1CCCC(=O)N1c1ccc(O)cc1` was > 4 mM (inactive). The value for `CNC(=O)C1COc2ccccc2O1` (stereo not drawn) was > 4 mM (inactive); that for `Cc1ncc(C(=O)O)c(-c2ccccc2)n1` was > 4 mM (inactive). Regarding `CC(=O)N1CC2(C)CN(C(C)=O)CC(C)(C1)C2O` (stereo not drawn), the Kd was > 4 mM (inactive). With `CS(=O)(=O)c1ccc2nc(N)sc2c1` the figure was > 4 mM (inactive); with `O=C(O)c1cc(O)c2c(c1)C(=O)c1cc(O)cc(O)c1C2=O`, > 4 mM (inactive); with `CN(C)C(=O)C12CCC(C)(C(=O)O1)C2(C)C` (stereo not drawn), > 4 mM (inactive). With `O=c1cnnc(NCc2ccc(F)cc2)[nH]1` the figure was > 4 mM (inactive); with `CN1C(CC(=O)c2ccccc2)CCCC1CC(O)c1ccccc1` (stereo not drawn), > 4 mM (inactive). The value for `CC1(C)C(=O)C=C[C@@]2(C)C1CC(=O)[C@]1(C)C2CC[C@@]2(C)[C@H](c3ccoc3)OC(=O)[C@H]3O[C@]321` (stereo partly drawn) was > 4 mM (inactive); that for `CC(=O)c1ccc(CC2SC(N)=NC2=O)cc1` (stereo not drawn) was > 4 mM (inactive). Regarding `O=c1[nH]c2ccc(S(=O)(=O)NC3CC3)cc2[nH]1`, the Kd was > 4 mM (inactive).

As to `CCc1sc(C(=O)NC)cc1Br`, the Kd is > 4 mM (inactive). Turning to `CCc1c(C(=O)Nc2ccncc2)csc1C`, the Kd was > 4 mM (inactive). Turning to `CCC(=O)OC1[C@@H]2CC3=C4CC(=O)O[C@@H](c5ccoc5)[C@]4(C)CCC3C(C)(C2=O)[C@@H](CC(=O)OC)C1(C)C` (stereo partly drawn), the Kd is > 4 mM (inactive).

`CC(=O)NC12CC3CC(CC(O)(C3)C1)C2`: the Kd is > 4 mM (inactive). Consider `CC(=O)Nc1ccc(NC(=O)c2ccncc2)cc1`, for which the Kd is > 4 mM (inactive). The value for `O=C1CSC(=NC(=O)c2ccccc2)N1` was > 4 mM (inactive). With `O=C(c1cccc(-n2cnnn2)c1)N1CCOCC1` the figure was > 4 mM (inactive); with `O=C1CCN(c2ccccc2)N1`, > 4 mM (inactive); with `Cc1ccc(NC(=O)N2CCC(C(N)=O)CC2)cc1`, > 4 mM (inactive). For `Cc1cc(N2CCCC2=O)c(N)cc1N`, the Kd is > 4 mM (inactive). The value for `Cc1ccccc1C(=O)Nc1cccc(N)c1` was > 4 mM (inactive). With `CC(=O)O[C@@H]1CC[C@@]2(C)C(CC[C@]3(C)C2CC=C2C4CC(C)(C)CC[C@]4(C(=O)O)CC[C@]23C)C1(C)C` (stereo partly drawn) the figure was > 4 mM (inactive); with `Cc1cccn2cc(CNc3ccccc3)nc12`, > 4 mM (inactive).

As a reminder, the Kd is the equilibrium constant for the complex coming apart.
